Test results: US20030191144A1, “Compounds, compositions and methods for modulating beta-amyloid production” (Active Pass Pharmaceuticals, Inc., priority 2001, published 2003)

Experiments:
Type in all cases: cell-based
[1] = test system: Aβ40 from human neuroblastoma cells (hDAT; SK-N-MC); experiment: Aβ40 ELISA, human neuroblastoma cells transiently transfected with APPsw; details: 200 μM, 24 hours
Method: Human neuroblastoma cells (hDAT; SK-N-MC stably overexpression human dopamine transporter) were routinely maintained in DMEM supplemented with sodium pyruvate (1 mM) and 10% fetal bovine serum. […] Subsequently, 48 hours post-transfection the cells were rinsed with PBS and treated with vehicle (0.1% DMSO) or 100-200 μM pirinixic acid in serum free/phenol free DMEM for 24 hours. After the pharmacological treatment, the exposure media was collected and supplemented with 10% sample treatment buffer (40 mM sodium phosphate (pH 7.4), 40 mM triethanolamine, 0.1% Triton X-100, 200 mM NaCl, 2 mM EGTA, 0.1% Sodium azide), and assayed for either Aβ40 or AP42 by a calorimetric ELISA as per the manufacturer's protocol (Biosource International Inc, California). The cells were lysed in 0.1% Triton X-100 in PBS supplemented with 5 μM Propridium Iodide (Molecular probes, Eugene, Oreg.) and incubated at 37° C. for 30 minutes prior to measuring fluorescence. Secreted Aβ40 and Aβ42 levels were standardized against propridium iodide fluorescence as a measure of total cell number. Data are expressed as a percent of control and represent the mean±SD with n=11 and statistical significance determined by ANOVA with a Tukey's post hoc test at ***p<0.001.

[2] = test system: Aβ42 from primary murine cortical neurons; experiment: Aβ42 sandwich ELISA, primary murine cortical neurons infected with APP695; details: primary murine cortical neurons infected with APP695, 5 μM, p<0.01, n=6
Method: The cDNA coding for human APP695 is cloned in the Smal site of pSFV-1 as described previously (Simons et al., J. Neurosci. 16:899-908, 1996; Tienari et al., Embo. J. 15:5218-29, 1996). PSFV-1/huAPP695 constructs are linearized,with SpeI and run-off transcription using SP6 polymerase is performed to produce mRNA. The transcribed mix of APP and pSFV-helper are cotransfected into BHK cells by electroporation to yield recombinant SFV (Olkkonen et al., J. Neurosci. Res. 35:445-51, 1993). BHK cells are grown in DMEM/F12 supplemented with 5% fetal calf serum, 2 mM L-glutamine, 100 U/ml penicillin, and […] streptomycin. Twenty-four hours after transfection, the culture supernatant containing infective recombinant SFV is collected. Aliquots are snap-frozen in liquid nitrogen and stored at −70° C. until use. […]
The levels of the longer Aβ42 peptide are quantified in both the conditioned media and cell extracts using a sandwich ELISA test (De Strooper et al., Nature 391:387-90, 1998; Vanderstichele et al., Amyloid. 7:245-58, 2000). […] Finally HRP substrate is added and the colorimetric reaction is quantitated spectrophotometrically using a Victor 2 (Wallac) equipped with a 450 nm filter. […] The Aβ42 concentrations in the samples are finally calculated based on the Aβ42 standards nonlinear regression equation and using Mathematica 4.1 software package (Wolfram Research, Champaign, Ill.). […]

[3] = test system: Aβtotal from primary murine cortical neurons; experiment: Aβtotal immunoprecipitation, primary murine cortical neurons infected with APP695; details: primary murine cortical neurons infected with APP695, below 250 μM (5-50 μM)
Method: The cDNA coding for human APP695 is cloned in the Smal site of pSFV-1 as described previously (Simons et al., J. Neurosci. 16:899-908, 1996; Tienari et al., Embo. J. 15:5218-29, 1996). PSFV-1/huAPP695 constructs are linearized,with SpeI and run-off transcription using SP6 polymerase is performed to produce mRNA. The transcribed mix of APP and pSFV-helper are cotransfected into BHK cells by electroporation to yield recombinant SFV (Olkkonen et al., J. Neurosci. Res. 35:445-51, 1993). BHK cells are grown in DMEM/F12 supplemented with 5% fetal calf serum, 2 mM L-glutamine, 100 U/ml penicillin, and […] streptomycin. Twenty-four hours after transfection, the culture supernatant containing infective recombinant SFV is collected. Aliquots are snap-frozen in liquid nitrogen and stored at −70° C. until use.
All experiments are conducted on murine primary cortical neurons derived from E14 embryos according to established procedures (Annaert et al., J. Cell Biol. 147:277-294, 1999; Cupers et al., J. Cell Biol. 154:731-40, 2001; De Strooper et al., Nature 391:387-90, 1998). […]
Data are expressed as a percent of control and represent the mean±SD with n=6 and statistical significance determined by ANOVA with a Tukey's post hoc test at **p<0.01, ***p<0.001.

## Cc1cccc(Nc2cc(Cl)nc(SCC(=O)O)n2)c1C [pirinixic acid]
[1]
  effect on Aβ40: without altering Aβ40
[2]
  decrease in Aβ42: 20%
[3]
  effect on Aβtotal: no significant effect
